Patent US20130203649A1, “INHIBITORS OF TLR SIGNALING BY TARGETING TIR DOMAIN INTERFACES” (UNIVERSITY OF MARYLAND, BALTIMORE, priority 2012, published 2013)
Residues, ends and D or L forms follow the SMILES beside them. No end group written: not given here.

What was measured:
TLR4 [1] = assay: Inhibition of TLR4 signaling in thioglycollate-elicited mouse macrophages (effective concentration, overall inhibitory activity); assay type: cell-based; conditions: for Effective conc.: TLR4 pathway, thioglycollate-elicited mouse macrophages; for Inhibition of TLR4 signaling (overall): LPS-stimulated mouse macrophages
Outline: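 Thioglycollate-elicited peritoneal macrophages from C57BL/6J mice, adherent after overnight culture in RPMI with 2% FBS; cell-permeating (Antennapedia-fused) decoy peptides added 30 min before agonist. TLR4 stimulated with E. coli K235 LPS at 100 ng/ml final.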

TLR4 [2] = assay: LPS-induced MAPK (ERK, JNK, p38) activation in mouse macrophages (Western analysis); assay type: cell-based; conditions: for LPS-induced ERK phosphorylation / LPS-induced JNK activation: 30 min LPS 10 ng/ml
Protocol: Cellular protein extracts were isolated by addition of 240 μL per well cold lysate buffer (20 mM Tris, 50 mM NaCl, 1.5 mM MgCl2, 2 mM EDTA, 10 mM NaF, 2 Mm DTT, 1 mM Na3VO4, 1% Triton). Cells were incubated with lysis solution for 30 min on agitator at 4° C. Lysate was then collected and centrifuged at 14,000 g for 10 minutes at 4° C. After quantification using BioRad protein assay, protein samples were added to Laemmli buffer and then boiled for 10 min. Samples were then resolved by SDS-10% PAGE in Tris/glycine/SDS buffer (25 mM Tris, 250 mM glycine, 0.1% SDS), and transferred onto Immobilon P transfer membranes (Millipore, Bedford, Mass.) (100 V, 1.5 h, 4° C.). Membranes were blocked for 1 h in TBS-T (20 mM Tris-HCl, 150 mM NaCl, 0.1% Tween 20) containing 5% nonfat milk, then probed for overnight at 4° C. with the respective antibodies (Abs) (dilution 1:1000 in TBS-T with 2% BSA). After washing in TBS-T, membranes were incubated with secondary HRP-conjugated, donkey anti-rabbit IgG (1:10,000 dilution in TBS-T with 5% nonfat milk) for 1 h at room temperature. Membranes washed five times in TBS-T before development with ECL reagents (GE Healthcare) according to manufacturer's directions.
HEK293T cells were transfected with indicated plasmids using Superfect Transfection Reagent (Qiagen). Twenty-four hours posttransfection, the cells were lysed using the buffer containing 20 mM HEPES (pH 7.4), 150 mM NaCl, 10 mM NaF, 2 mM Na3VO4, 1 mM EDTA, 1 mM EGTA, 0.5% Triton X-100, 0.1 M DTT, 1 mM PMSF, and protease inhibitor mixture (Roche, Indianapolis, Ind.). Rabbit Ab against phospho-ERK, phospho-JNK, MyD88 (D80F5), STAT1-Y701, total STAT1, and GAPDH were purchased from Cell Signaling Technology (Beverly, Mass.). Rabbit anti-phospho-p38 Ab was purchased from Promega (Madison, Wis.). Goat anti-TLR4 (M−16), rabbit anti-TLR4 (H-80), anti-HA-HRP (F-7), and rabbit anti-b-actin Ab were purchased from Santa Cruz Biotechnology. Mouse anti-Flag M2 and rabbit anti-HA Ab were from Sigma-Aldrich. GFP Ab (A1122) was from Invitrogen. Protein was quantified using Bio-Rad protein quantification kit. Equal amount of protein was loaded and analyzed by 10% SDS-PAGE and immunoblotting. The cell extracts containing equal amount of protein were incubated with 1 μg Ab for 2 h, followed by 4-h incubation with 25 μl protein G agarose beads (Roche); the beads were then washed four times with lysis buffer, boiled in […] sample loading buffer, and analyzed by immunoblotting.
We next examined whether TRAM peptides inhibit the TLR4-mediated p38, ERK, and JNK MAPK activation. Murine macrophages pretreated with peptides for 30 min were challenged with LPS. Cell lysates were collected 30 min post-stimulation and analyzed for MAPK phosphorylation by Western analysis. Consistent with peptide effects on steady-state mRNA, both TM4 and TM6 inhibited activation of all three MAPKs (FIG. 5C). The inhibition of MAPKs by TM4 or TM6 was long lasting; it persisted for at least 1 h after LPS stimulation (data not shown). To characterize further the effects of TRAM peptides on MAPKs, murine macrophages were treated with TRAM peptides, but not challenged by LPS.

Compound	Effective conc. (TLR4 [1]) [µM]	LPS-induced p38, ERK, and JNK MAPK activation (TLR4 [2]; lysates 30 min after LPS)	Inhibition of TLR4 signaling (overall) (TLR4 [1])	LPS-induced ERK phosphorylation (TLR4 [2]; 20 μM peptide)	LPS-induced JNK activation (TLR4 [2]; 20 μM peptide)	LPS-induced activation of p38 and ERK MAPKs (TLR4 [2]; 20 μM peptide, LPS 30 min)
RQIKIWFQNRRMKWKKCLQDAIDHSGFT [TF5]	20	inhibit	–	–	–	–
RQIKIWFQNRRMKWKKEGSQASLRCF [TR3]	–	–	potently inhibited	potently inhibited	apparent absence of JNK inhibition	–
CC[C@H](C)[C@H](NC(=O)[C@H](CCCCN)NC(=O)[C@@H](NC(=O)[C@H](CCC(N)=O)NC(=O)[C@@H](N)CCCNC(=N)N)[C@@H](C)CC)C(=O)N[C@@H](Cc1c[nH]c2ccccc12)C(=O)N[C@@H](Cc1ccccc1)C(=O)N[C@@H](CCC(N)=O)C(=O)N[C@@H](CC(N)=O)C(=O)N[C@@H](CCCNC(=N)N)C(=O)N[C@@H](CCCNC(=N)N)C(=O)N[C@@H](CCSC)C(=O)N[C@@H](CCCCN)C(=O)N[C@@H](Cc1c[nH]c2ccccc12)C(=O)N[C@@H](CCCCN)C(=O)N[C@@H](CCCCN)C(=O)N[C@@H](CCC(=O)O)C(=O)N[C@@H](CC(C)C)C(=O)N[C@@H](CS)C(=O)N[C@@H](CCC(N)=O)C(=O)N[C@@H](C)C(=O)N[C@@H](CC(C)C)C(=O)N[C@@H](CO)C(=O)N[C@@H](CCCNC(=N)N)C(=O)N[C@@H](CO)C(=O)N[C@@H](Cc1c[nH]cn1)C(=O)N[C@@H](CS)C(=O)N[C@@H](CCCNC(=N)N)C(=O)O [TR5] (H-RQIKIWFQNRRMKWKKELCQALSRSHCR-OH)	20	–	potently inhibited	potently inhibited	–	–
RQIKIWFQNRRMKWKKAAYPPELRFMYYVD [TR9]	20	–	potently inhibited	potently inhibited	inhibited	–
RQIKIWFQNRRMKWKKPGFLRDPWCKYQML [TR6]	–	–	potently inhibited	potently inhibited	apparent absence of JNK inhibition	potently inhibited
RQIKIWFQNRRMKWKKGGFYQVKEAVIHY [TR11]	20	–	potently inhibited	potently inhibited	inhibited	–
